Target: T1, Cbp1 (c-di-GMP binding protein 1; PilZ domain containing chemoreceptor) (Azorhizobium caulinodans, UniProt A8II15)
T1 construct: gene AZC_3349; Cbp1 ORF with C-terminal 6×His tag, expressed in E. coli Top10
Test: ITC ([…] protein titrated with […] c-di-GMP); also protein thermal shift assay

T1 sequence (A8II15 1-581): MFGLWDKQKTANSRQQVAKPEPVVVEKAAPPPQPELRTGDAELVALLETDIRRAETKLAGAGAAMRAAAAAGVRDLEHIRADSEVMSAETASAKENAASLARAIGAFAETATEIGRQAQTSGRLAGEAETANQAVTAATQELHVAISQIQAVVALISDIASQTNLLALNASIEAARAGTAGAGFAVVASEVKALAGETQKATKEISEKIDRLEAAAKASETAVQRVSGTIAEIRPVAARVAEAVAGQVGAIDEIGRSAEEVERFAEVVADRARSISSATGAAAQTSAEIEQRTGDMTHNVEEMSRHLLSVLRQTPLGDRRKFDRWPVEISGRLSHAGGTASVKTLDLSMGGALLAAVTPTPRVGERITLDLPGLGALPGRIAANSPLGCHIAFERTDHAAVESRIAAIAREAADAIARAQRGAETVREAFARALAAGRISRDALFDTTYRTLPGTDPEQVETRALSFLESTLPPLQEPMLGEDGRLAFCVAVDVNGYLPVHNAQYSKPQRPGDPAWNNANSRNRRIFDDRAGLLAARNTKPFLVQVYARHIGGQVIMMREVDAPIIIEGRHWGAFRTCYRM

Kd: 14.9 ± 1.6 µM
Structure (SMILES): Nc1nc2c(ncn2[C@@H]2O[C@@H]3CO[P@](=O)(O)O[C@H]4[C@@H](O)[C@H](n5cnc6c(=O)[nH]c(N)nc65)O[C@@H]4CO[P@](=O)(O)O[C@H]3[C@H]2O)c(=O)[nH]1 [c-di-GMP]

Reference: PMC6454048, “Identification of Cbp1, a c-di-GMP Binding Chemoreceptor in Azorhizobium caulinodans ORS571 Involved in Chemotaxis and Nodulation of the Host Plant” (Frontiers in Microbiology, 2019)
